Our source for the IC50 values is patent publication US10703756B2, “Pyrrolo[2,3-D]pyrimidinyl, pyrrolo[2,3-B]pyrazinyl, pyrrolo[2,3-B]pyridinyl acrylamides and epoxides thereof” (Pfizer Inc., priority 2015, dated 2020).

Assay [1] has as its target T1, JAK3 enzyme (Homo sapiens, UniProt P52333).
T1 sequence (P52333 1-1124): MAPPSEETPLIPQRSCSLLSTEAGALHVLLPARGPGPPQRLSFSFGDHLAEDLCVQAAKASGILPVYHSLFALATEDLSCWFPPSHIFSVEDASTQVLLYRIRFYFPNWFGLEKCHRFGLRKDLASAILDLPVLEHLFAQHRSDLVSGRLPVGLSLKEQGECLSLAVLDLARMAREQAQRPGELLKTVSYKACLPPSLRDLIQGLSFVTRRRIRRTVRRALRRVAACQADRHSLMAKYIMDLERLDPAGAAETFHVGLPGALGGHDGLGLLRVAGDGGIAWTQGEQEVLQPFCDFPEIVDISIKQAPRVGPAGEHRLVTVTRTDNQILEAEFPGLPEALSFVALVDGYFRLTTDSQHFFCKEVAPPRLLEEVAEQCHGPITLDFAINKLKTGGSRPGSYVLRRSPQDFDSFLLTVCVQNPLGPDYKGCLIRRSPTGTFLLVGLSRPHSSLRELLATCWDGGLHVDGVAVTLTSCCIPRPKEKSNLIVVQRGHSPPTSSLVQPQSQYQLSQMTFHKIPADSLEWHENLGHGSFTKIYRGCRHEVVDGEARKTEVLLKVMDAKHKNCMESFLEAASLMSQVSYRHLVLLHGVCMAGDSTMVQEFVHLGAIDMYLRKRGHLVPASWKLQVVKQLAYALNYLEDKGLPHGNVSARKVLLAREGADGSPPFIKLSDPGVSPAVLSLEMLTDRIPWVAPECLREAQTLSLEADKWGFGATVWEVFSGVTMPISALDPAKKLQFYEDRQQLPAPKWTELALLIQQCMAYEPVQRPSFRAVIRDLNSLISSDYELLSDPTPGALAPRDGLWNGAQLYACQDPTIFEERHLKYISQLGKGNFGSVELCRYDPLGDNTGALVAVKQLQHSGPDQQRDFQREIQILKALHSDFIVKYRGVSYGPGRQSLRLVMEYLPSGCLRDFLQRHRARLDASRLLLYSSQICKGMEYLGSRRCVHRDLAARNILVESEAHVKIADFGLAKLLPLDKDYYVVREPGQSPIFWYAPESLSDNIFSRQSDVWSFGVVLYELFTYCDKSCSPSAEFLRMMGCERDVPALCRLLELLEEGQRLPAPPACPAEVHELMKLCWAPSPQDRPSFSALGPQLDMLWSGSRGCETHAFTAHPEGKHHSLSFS
The experiment in a line: JAK Caliper Enzyme Assay at 4 μM ATP. The format is biochemical. An outline of the steps:
(§1)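 First, compound stocks in DMSO were serially diluted half-log over 11 points, starting at 600 μM. Next, reactions ran with batch-optimized enzyme and timing targeting 20%-30% phosphorylation. Finally, wells were sampled and product separated from substrate peptide electrophoretically.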

The target in assay [2] is T1, JAK3 enzyme. The experiment in a line: JAK Caliper Enzyme Assay at 1 mM ATP. The format is biochemical. The gist of the method: as §1

Structures are written as SMILES.

The term IC50 denotes the concentration that inhibits the measured activity by half. Lower therefore signals higher potency. For `C=CC(=O)N1CC[C@@H](Nc2cnc3[nH]cc(C(=O)NCC)c3n2)[C@@H](C)C1` (racemic) [Example 37, Cis-racemic-2-{[(3S,4R)-1-acryloyl-3-methylpiperidin-4-yl]amino}-N-ethyl-5H-pyrrolo[2,3-b]pyrazine-7-carboxamide], the IC50 against JAK3 enzyme [1] was 0.375 nM; on JAK3 enzyme [2], 51 nM.
For `C=CC(=O)N1CC[C@@H](Oc2cnc3[nH]cc(C(=O)N[C@@H](C)COC)c3n2)C[C@@H]1C` (single isomer, unassigned) [Example 73] the same measures were 0.971 nM and 33 nM.
For `C=CC(=O)N1CC[C@@H](Oc2cnc3[nH]cc(C(=O)N[C@@H](C)COC)c3n2)C[C@@H]1C` (racemic) [Example 71, Trans-racemic-2-{[1-acryloyl-2-methylpiperidin-4-yl]oxy}-N-[(2S)-1-methoxypropan-2-yl]-5H-pyrrolo[2,3-b]pyrazine-7-carboxamide] the same measures were 1.13 nM and 54 nM.
For the compound `C=CC(=O)N1CC[C@H](Nc2cnc3[nH]cc(C(=O)NCC)c3n2)C[C@H]1C` (racemic) [Example 40, Trans-racemic-2-{[(2R,4S)-1-acryloyl-2-methylpiperidin-4-yl]amino}-N-ethyl-5H-pyrrolo[2,3-b]pyrazine-7-carboxamide], the results for the IC50 at JAK3 enzyme [1] and against JAK3 enzyme [2] were 0.384 nM and 24 nM, respectively.
As to `C=CC(=O)N1CCC(Oc2cnc3[nH]cc(C(=O)NC(C)C4CC4)c3n2)CC1` (racemic) [Example 220, Racemic-2-[(1-acryloylpiperidin-4-yl)oxy]-N-(1-cyclopropylethyl)-5H-pyrrolo[2,3-b]pyrazine-7-carboxamide], the IC50 against JAK3 enzyme [1] was found to be 0.211 nM; on JAK3 enzyme [2] it was 18 nM.
With `C=CC(=O)N1CC[C@@H](Nc2cnc3[nH]cc(C(=O)NCC)c3n2)[C@@H](C)C1` (single isomer, unassigned) [Example 38], the results for the IC50 at JAK3 enzyme [1] and against JAK3 enzyme [2] were 0.328 nM and 30 nM, respectively.
The corresponding values for `C=CC(=O)N1CCC(Nc2cnc3[nH]cc(C(=O)NCc4ccc(F)c(C#N)c4)c3n2)CC1` [Example 189, 2-[(1-acryloylpiperidin-4-yl)amino]-N-(3-cyano-4-fluorobenzyl)-5H-pyrrolo[2,3-b]pyrazine-7-carboxamide] are 0.689 nM and 6 nM.
Consider `C=CC(=O)N1CC[C@H](Nc2cnc3[nH]cc(C(=O)NCC(F)(F)F)c3n2)[C@H](OC)C1` [Example 293, 2-{[(3R,4S)-1-acryloyl-3-methoxypiperidin-4-yl]amino}-N-(2,2,2-trifluoroethyl)-5H-pyrrolo[2,3-b]pyrazine-7-carboxamide], for which the IC50 is 0.68 nM against JAK3 enzyme [1] and 51 nM at JAK3 enzyme [2].
For `C=CC(=O)N1C[C@H](COCCC#N)C[C@H](Nc2ncnc3[nH]ccc23)C1` [Example 101, 3-{[(3R,5S)-1-Acryloyl-5-(7H-pyrrolo[2,3-d]pyrimidin-4-ylamino)piperidin-3-yl]methoxy}propanenitrile], the IC50 is 0.219 nM on JAK3 enzyme [1] and 28 nM against JAK3 enzyme [2].
For `C=CC(=O)N1CCC(C)(Nc2cnc3[nH]cc(C(=O)NC4CCC4)c3n2)CC1` [Example 324, 2-[(1-acryloyl-4-methylpiperidin-4-yl)amino]-N-cyclobutyl-5H-pyrrolo[2,3-b]pyrazine-7-carboxamide] the same measures were 0.418 nM and 21 nM.
The corresponding values for `C=CC(=O)N1CCN(c2cnc3[nH]cc(C(=O)N[C@@H](C)COC)c3n2)CC1(C)C` [Example 298, 2-(4-acryloyl-3,3-dimethylpiperazin-1-yl)-N-[(2S)-1-methoxypropan-2-yl]-5H-pyrrolo[2,3-b]pyrazine-7-carboxamide] are 0.485 nM and 69 nM.
With `C=CC(=O)N1CCC(Nc2cnc3[nH]cc(C(=O)NCc4ccccc4F)c3n2)CC1` [Example 196, 2-[(1-acryloylpiperidin-4-yl)amino]-N-(2-fluorobenzyl)-5H-pyrrolo[2,3-b]pyrazine-7-carboxamide], the IC50 on JAK3 enzyme [1] was 0.479 nM; at JAK3 enzyme [2], 5 nM.
Turning to `C=CC(=O)N1CC[C@H](Nc2cnc3[nH]cc(C(=O)NCC4CCCC4)c3n2)[C@H](OC)C1` [Example 284, 2-{[(3R,4S)-1-acryloyl-3-methoxypiperidin-4-yl]amino}-N-(cyclopentylmethyl)-5H-pyrrolo[2,3-b]pyrazine-7-carboxamide], the IC50 against JAK3 enzyme [1] came to 0.301 nM; against JAK3 enzyme [2], 42 nM.
The corresponding values for `C=CC(=O)N1CCC(Nc2cnc3[nH]cc(C(=O)NCC4CC4)c3n2)CC1` [Example 172, 2-[(1-acryloylpiperidin-4-yl)amino]-N-(cyclopropylmethyl)-5H-pyrrolo[2,3-b]pyrazine-7-carboxamide] are 0.448 nM and 5 nM.
In the case of `C=CC(=O)N1CCC(Oc2cnc3[nH]cc(C(=O)NC4CCCC4(F)F)c3n2)CC1` (stereo not shown) [Example 219, 2-[(1-acryloylpiperidin-4-yl)oxy]-N-(2,2-difluorocyclopentyl)-5H-pyrrolo[2,3-b)pyrazine-7-carboxamide], the values for the IC50 at JAK3 enzyme [1] and at JAK3 enzyme [2] were 0.363 nM and 25 nM, respectively.
For `C=CC(=O)N1CCC(Oc2cnc3[nH]cc(C(=O)N[C@H]4CC[C@@H](F)C4)c3n2)CC1` [Example 225, 2-[(1-acryloylpiperidin-4-yl)oxy]-N-[(1S,3R)-3-fluorocyclopentyl]-5H-pyrrolo[2,3-b]pyrazine-7-carboxamide] the same measures were 0.233 nM and 25 nM.
For `C=CC(=O)N1CCN(c2cnc3[nH]cc(C(=O)N[C@@H](C)COC)c3n2)CC1` [Example 295, 2-(4-acryloylpiperazin-1-yl)-N-[(2S)-1-methoxypropan-2-yl]-5H-pyrrolo[2,3-b]pyrazine-7-carboxamide] the same measures were 0.179 nM and 29 nM.
For `C=CC(=O)N1CC[C@@H](Oc2cnc3[nH]cc(C(=O)NCC)c3n2)[C@H](C)C1` (single isomer, unassigned) [Example 47] the same measures were 1.18 nM and 87 nM.
For `C=CC(=O)N1CC[C@@H](Nc2cnc3[nH]cc(C(=O)NCC)c3n2)C[C@@H]1C` (single isomer, unassigned) [Example 42], the IC50 was determined as 0.4 nM against JAK3 enzyme [1] and 50 nM against JAK3 enzyme [2].
For `C=CC(=O)N1CCN(c2cnc3[nH]cc(C(=O)N[C@H](C)COC)c3n2)CC1(C)C` [Example 327] the same measures were 0.546 nM and 56 nM.
For `C=CC(=O)N1CCC(Nc2cnc3[nH]cc(C(=O)NCCC4CC4)c3n2)CC1` [Example 178, 2-[(1-acryloylpiperidin-4-yl)amino]-N-(2-cyclopropylethyl)-5H-pyrrolo[2,3-b]pyrazine-7-carboxamide], the IC50 is 0.442 nM on JAK3 enzyme [1] and 6 nM against JAK3 enzyme [2].
Consider `C=CC(=O)N1CCC(N(C)c2cnc3[nH]cc(C(=O)NC(C)C)c3n2)CC1` [Example 64, 2-[(1-acryloylpiperidin-4-yl)(methyl)amino]-N-(propan-2-yl)-5H-pyrrolo[2,3-b]pyrazine-7-carboxamide], for which the IC50 against JAK3 enzyme [1] is 0.408 nM; against JAK3 enzyme [2] it was 50 nM.
For `C=CC(=O)N1CCC(Oc2cnc3[nH]cc(C(=O)N[C@@H](C)CC)c3n2)CC1` [Example 205, 2-[(1-acryloylpiperidin-4-yl)oxy]-N-[(2S)-butan-2-yl]-5H-pyrrolo[2,3-b]pyrazine-7-carboxamide] the same measures were 0.138 nM and 16 nM.
On to `C=CC(=O)N1CCC(Oc2cnc3[nH]cc(C(=O)N[C@@H](C)COC)c3n2)CC1` [Example 228, 2-[(1-acryloylpiperidin-4-yl)oxy]-N-[(2S)-1-methoxypropan-2-yl]-5H-pyrrolo[2,3-b]pyrazine-7-carboxamide], for which the IC50 on JAK3 enzyme [1] turned out to be 0.229 nM; at JAK3 enzyme [2] it was 18 nM.
The corresponding values for `C=CC(=O)N1C[C@@H](CC#N)C[C@@H](Nc2ncnc3[nH]ccc23)C1` (racemic) [Example 105, Cis-racemic-[1-acryloyl-5-(7H-pyrrolo[2,3-d]pyrimidin-4-ylamino)piperidin-3-yl]acetonitrile] are 0.408 nM and 54 nM.
For `C=CC(=O)N1CC[C@@H](Oc2cnc3[nH]cc(C(=O)NCC)c3n2)C[C@@H]1C` (single isomer, unassigned) [Example 79] the same measures were 0.608 nM and 77 nM.
